Assay results published in PMC4520450, “Procyanidins Negatively Affect the Activity of the Phosphatases of Regenerating Liver” (PLoS ONE, 2015).

Tests used:
[1] = tested on: HEK293 cells (empty vector, PRL-1 and PRL-3 overexpressing); assay: Cytotoxicity by flow cytometry with propidium iodide; format: cell-based; details: 24 h
Excerpt: To study the effects of procyanidins on PRL-1 and PRL-3 in cells, the trimeric catechin (procyanidin C2, 9) was chosen as a representative example due to its strong inhibitor activity in vitro toward both PRL-s and its smaller size compared to the higher oligomers, which could influence cell permeability. HEK293 cells stably overexpressing PRL-1 and PRL-3 were chosen as model cell line. As a control cell line, HEK293 cells transfected with the empty vector were utilized (see the Experimental Procedures). To avoid false positive results due to cell death, first cell viability was studied in a concentration dependent manner by using flow cytometry. Therefore, cells were treated with different concentrations of compound 9 for 24 h, harvested, and then the ratio of living to dead cells was determined using propidium iodide (Fig 5).
Fig 5 Cytotoxicity of procyanidin C2 (9) in HEK293 cells. Cells were treated with 50, 150 or 300 μM of 9 in the growth medium for 24 h. Cells were harvested, resuspended in PBS buffer and incubated with propidium iodide (1 mg/mL) for 5 min on ice. 10,000 events were set for the number of living cells. The number of living cells was divided by the number of total cells counted and given as percentage of cell survival. Data represent means ± standard errors of the mean (n = 3).
Fig 7 A) Cytotoxicity of procyanidin B3 (8) in HEK293 cells. Cells were treated with 50, 75 or 100 μM of 8 in the growth medium for 24 h. Cells were harvested, resuspended in PBS buffer and incubated with propidium iodide (1 mg/mL) for 5 min on ice. 10,000 events were set for the number of living cells. The number of living cells was divided by the number of total cells counted and given as percentage of cell survival. Data represent means ± standard errors of the mean (n = 3). B) Wound healing abilities of PRL-1 or PRL-3 overexpressing or empty vector control HEK293 cell lines were analyzed in the presence of compound 8 or medium only. Cells were seeded at a concentration of 800,000 cells per insert and procyanidin B3 (8) was added at a concentration of 50 and 75 μM. Speed of migration is shown for combined data from different replicates, as mean ± SD (n = 40–77). Two-sided t-tests with Welsh correction were performed for p < 0.05. ns = not significant;***: < 0.001; **: < 0.01; *: < 0.05.
Flow cytometry was used to determine the ratio of living to dead cells compared to the control. HEK293 empty vector and PRL-3 overexpressing cells were seeded in a transparent 6-well plate with 400,000 cells/well in DMEM medium without Phenol red, supplemented with 10% FBS, 1% glutamine and 0.2% hygromycin and blasticidin. For induction of PRL-3 expression, 0.1% tetracycline was added. After 24 hours incubation at 37°C, procyanidins 8 or 9 dissolved in growth medium and growth medium as a control were added to the respective wells in the indicated final concentrations and incubated for another 24 hours. Then, the medium was removed and collected in Eppendorf tubes, centrifuged for 5 min at 500 rpm and the supernatant removed. Then 1 mL of PBS (10%) was added to each well and the cells detached with a cell scraper. […] After thorough mixing the cell suspension was injected into a LSR- Fortessa Bench Top Analyzer (Beckton Dickinson) and the number of living and dead cells counted. […] The number of living cells was divided by the number of total cells counted and given as percentage of cell survival.

PP2A = molecular target: T1, PP2A (Homo sapiens, UniProt P67775); assay: DiFMUP assay for PP2A; format: biochemical; details: 0.05 U PP2A, 30 min preincubation, 25°C, no BSA, mean ± SEM (n = 3–5), read-out: IC50 (Ki) PP2A
T1 construct: purified from human red blood cells; purchased Merck Millipore; host or cells: human red blood cells
Procedure: Fig 2 Effect of polyphenolic compounds 8 (A), 9 (B), 10 (C) and 11 (D) on the phosphatase activity of PRL-1, PRL-2, PRL-3, PP1, and PP2A. Proteins were incubated for 30 min with 0–1000 μM of the corresponding procyandin 8–11. Phosphatase activity was measured in the presence of DiFMUP at 25°C using the concentration corresponding to the KM of each protein. The KM for PRLs was determined separately (PRL-3 = 21 μM, PRL-2 and PRL-1 = 24 μM). The KM for PP1 (91 μM) and for PP2A (100 μM) was taken from the literature. Protein concentrations are 50 nM for all PRLs and 2 mU for PP1 and 0.05 U for PP2A (see the Experimental Procedures). Phosphatase activity in the absence of inhibitors was set as 100%. Data represent means ± standard errors of the mean (n = 3–5).
BSA, which is usually supplemented to the assay buffer for stabilizing the PPs was however excluded, as BSA is known to form complexes with polyphenolic compounds [40–42] and thus would decrease the concentrations of the inhibitor in the assay. […] In contrast, the phosphatase activity of PP2A was suppressed to a much lesser extent with weak (for trimer 9 and hexamer 11) and strong statistical significance (dimer 8 and tetramer 10). Thus our results corroborate the data reported previously.
Chemicals and vendors were as follows: Synthesis of Procyanidins (dimer to dodecamer) was done as previously reported. EGCG, EGC, ECG and EC were synthesized as previously reported or purchased from Sigma. (+)-Catechin and 3-(4,5-dimethylthiazol-2-yl)-2,5-diphenyltetrazolium bromide (MTT) were obtained from Sigma. 6,8-Difluoro-4-Methylumbelliferyl Phosphate (DiFMUP), propidium iodide and calcein AM were from lifescience technologies. Cell dissociation solution (10X) was purchased from amsbio. PP1c (recombinant from E. coli) was purchased from NewEngland Biolabs and PP2A (purified from human red blood cells, contains different subunits according to manufacturer) from Merck Millipore. Transwell plates (BRANDplates) and insert stripes for the migration assay were purchased from Brand GmbH. Black 96 well plates (96F Nunclon Delta) were purchased from Thermo Scientific. Transparent 96 well assay plates with UV transparent bottom were purchased from Corning Inc. Wound healing experiments were carried out with μ-dish 35 mm culture inserts, which were purchased from Ibidi.
DiFMUP assay for PP2A: In a final reaction volume of 100 μL PP2A (0.05 U final concentration, according to manufacturer’s instructions) were incubated with decreasing concentrations of the inhibitory polyphenols for 30 minutes at 25°C. The assay buffer contained 50 mM TrisCl (pH 7.5), 250 mM NaCl, 0.1 mM EDTA, 1 mM MnCl2, and 2 mM dithiothreitol (DTT). […] Monitoring of the fluorescent dephosphorylation product was monitored and data analyzed as described above.

T1 sequence (P67775 whole entry): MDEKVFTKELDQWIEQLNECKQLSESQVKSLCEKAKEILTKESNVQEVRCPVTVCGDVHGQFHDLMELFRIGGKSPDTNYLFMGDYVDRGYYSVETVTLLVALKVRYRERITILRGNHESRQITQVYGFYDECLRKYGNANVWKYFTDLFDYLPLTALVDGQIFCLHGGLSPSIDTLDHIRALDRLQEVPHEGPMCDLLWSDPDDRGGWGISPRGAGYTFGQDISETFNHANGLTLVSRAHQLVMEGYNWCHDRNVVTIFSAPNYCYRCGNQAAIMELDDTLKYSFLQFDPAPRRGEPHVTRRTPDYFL
T1 sequence (P30153 2-589 partner limits assumed): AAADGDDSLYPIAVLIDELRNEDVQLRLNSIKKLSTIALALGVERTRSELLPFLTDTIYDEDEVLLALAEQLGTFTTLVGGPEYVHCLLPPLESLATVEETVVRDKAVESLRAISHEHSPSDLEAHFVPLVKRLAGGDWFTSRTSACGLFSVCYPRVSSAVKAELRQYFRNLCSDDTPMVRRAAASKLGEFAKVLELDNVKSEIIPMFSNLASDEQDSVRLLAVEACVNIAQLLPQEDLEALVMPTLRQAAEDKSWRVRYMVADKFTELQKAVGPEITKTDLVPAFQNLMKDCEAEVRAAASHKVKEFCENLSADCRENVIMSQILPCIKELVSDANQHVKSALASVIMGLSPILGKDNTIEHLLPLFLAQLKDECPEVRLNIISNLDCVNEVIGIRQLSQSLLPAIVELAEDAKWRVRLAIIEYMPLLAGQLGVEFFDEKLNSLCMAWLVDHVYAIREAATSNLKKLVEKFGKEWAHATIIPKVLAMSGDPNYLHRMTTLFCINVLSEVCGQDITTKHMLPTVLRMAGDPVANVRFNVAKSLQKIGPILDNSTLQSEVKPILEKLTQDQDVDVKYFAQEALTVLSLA

Row | Structure (SMILES) | cytotoxic effects ([1]; 50, 75 and 100 μM, all three cell lines) | concentration up to which not cytotoxic [1] | IC50 (PP2A) [µM] | concentration up to which not cytotoxic ([1]; human)
1 | Oc1cc(O)c2c(c1)O[C@H](c1ccc(O)c(O)c1)[C@@H](O)[C@@H]2c1c(O)cc(O)c2c1O[C@H](c1ccc(O)c(O)c1)[C@@H](O)C2 [Procyanidin B3 (8), Procyanidin B3] | did not show any cytotoxic effects | at least 100 μM | > 1000 | 
2 | Oc1cc(O)c2c(c1)O[C@H](c1ccc(O)c(O)c1)[C@@H](O)[C@@H]2c1c(O)cc(O)c2c1O[C@H](c1ccc(O)c(O)c1)[C@@H](O)[C@@H]2c1c(O)cc(O)c2c1O[C@H](c1ccc(O)c(O)c1)[C@@H](O)C2 [Procyanidin C2 (9), Procyanidin C2] |  |  | 213 ± 72 | up to 50 μM
